Measured values published in patent US8841420B2, “Synthetic peptide constructs for the diagnosis and treatment of periodontis associated with Porphyromonas gingivalis” (priority 1997, dated 2014).
No end group written: not given here.

Assays:
[1] = system: Porphyromonas gingivalis strain 33277; experiment: Murine lesion (abscess) model, immunisation then P. gingivalis challenge; type: in vivo, BALB/c mice; conditions: for Maximum lesion size: BALB/c mice immunised s.c. with 50 μg antigen (or 2×10^9 killed cells) in CFA then IFA, s.c. challenge 8×10^9 cells, measured over 10 days; for protection against P. gingivalis challenge (lesion size), in words: relative to DT or adjuvant alone controls
Experimental: BALB/c mice (6 per group) were inoculated (s.c.) with 50 μg of antigen emulsified in CFA and IFA for the primary and secondary inoculations and then challenged (s.c.) with 8×10^9 cells of P. gingivalis strain 33277.
BALB/c mice 6-8 weeks old were immunised subcutaneously with either 50 μg of the peptide-DT conjugate, 50 μg of DT or 2×10^9 formalin killed cells of Porphyromonas gingivalis strain 33277 emulsified in complete Freund's adjuvant (CFA). After 30 days the mice were injected subcutaneously with antigen (either 50 μg of the peptide-DT conjugate, 50 μg of DT or 2×10^9 formalin killed cells of Porphyromonas gingivalis strain 33277) emulsified in incomplete Freund's adjuvant (IFA) and then bled from the retrobulbar plexus 12 days later. All mice were challenged with 8×10^9 cells of P. gingivalis (200 μL) by subcutaneous injection in the abdomen and weighed and lesion size measured over 10 days. Lesion sizes are expressed as mm^2 and were statistically analysed using a Kruskal-Wallis one-way ANOVA and Mann-Whitney U-Wilcoxon rank sum W test.

[2] = system: TLCK-inactivated PrtR-PrtK proteinase-adhesin complex; experiment: Competitive binding assay (ELISA, ABM peptide-coated plates); set-up: species or system Porphyromonas gingivalis W50; conditions: for binding of the PrtR-PrtK complex to the substance: TLCK-inactivated complex; for inhibition of binding of the TLCK-inactivated PrtR-PrtK complex to the adsorbed ABM peptide: competitor in solution
Experimental: Competitive Binding Assay
Wells of flat-bottomed polyvinyl microtitre plates (Microtitre, Dynatech Laboratories, VA) were coated overnight at 4° C. using a solution (5 mg/ml) of the adhesin binding motif (ABM) peptide in 0.1M phosphate buffered saline, pH 7.4, containing 0.1% v/v Tween 20 (PBST) and 0.1% w/v sodium azide. After removal of the coating solution, 2% w/v skim milk powder in PEST was added to block the remaining uncoated plastic for 1 hour at room temperature and then washed (4×PBST). A solution (1 mg/ml) of the PrtR-PrtK proteinase-adhesion complex (inactivated with 1 mM TLCK) was incubated with known concentrations of ABM peptide, control peptide and casein for 1 hour and then transferred to the microtitre plates coated with the ABM peptide. Following incubation for 2 hours at 37° C. the plates were washed (5×PBST). A 1/10,000 dilution of rabbit anti-PrtR-PrtK antisera in PBST containing 1% w/v skim milk powder was then added to the washed wells and incubated for 2 hours at 37° C. Bound antibody was detected by incubation with horseradish peroxidase-conjugated goat immunoglobulin (Ig) directed against rabbit Ig (BioRad, Richmond, Calif.) for 1.5 hours at 37° C. After washing (5×PBST), substrate (0.4 mM 3,3′,5,5′-tetramethylbenzidine in 0.1M sodium acetate/citric acid buffer containing 0.004% v/v hydrogen peroxide) was added and colour development was stopped by addition of 2M H2SO4. Optical density (O.D.) at 450 nm was measured using a BioRad microplate reader model 450.

[3] = biological target: T1, PrtRII50 Arg-specific proteinase (Porphyromonas gingivalis, UniProt P95493); type: biochemical, Porphyromonas gingivalis W50; conditions: inhibition at similar concentrations to that which inhibited the PrtR45
T1 construct: made in house; host or cells: Porphyromonas gingivalis W50 (native enzyme purified from cell sonicate, not recombinant)
T1 sequence (P95493 230-736): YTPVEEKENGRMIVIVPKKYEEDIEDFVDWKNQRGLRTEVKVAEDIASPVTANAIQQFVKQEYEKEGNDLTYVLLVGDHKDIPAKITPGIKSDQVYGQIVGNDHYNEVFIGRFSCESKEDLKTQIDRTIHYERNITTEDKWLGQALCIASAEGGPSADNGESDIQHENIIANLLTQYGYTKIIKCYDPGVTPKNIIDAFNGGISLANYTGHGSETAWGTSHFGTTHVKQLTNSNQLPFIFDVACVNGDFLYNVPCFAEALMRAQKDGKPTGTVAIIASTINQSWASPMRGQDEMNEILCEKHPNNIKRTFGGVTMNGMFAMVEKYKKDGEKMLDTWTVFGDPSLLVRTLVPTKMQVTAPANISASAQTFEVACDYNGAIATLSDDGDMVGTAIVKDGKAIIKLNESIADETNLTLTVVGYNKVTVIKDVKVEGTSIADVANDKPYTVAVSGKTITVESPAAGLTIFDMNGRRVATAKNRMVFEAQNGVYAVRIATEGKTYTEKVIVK
Experimental: P. gingivalis W50 was grown in batch culture (5 L) and harvested at late logarithmic phase by centrifugation (5,000×g, 20 min, 4° C.). Cells were washed once with 150 ml TC buffer (20 mM Tris-HCl pH 7.4 and 5 mM CaCl2) containing 50 mM NaCl and sonicated as described previously (Bhogal et al., 1997). The sonicate was centrifuged (100,000×g, 30 min, 4° C.) and the supernatant filtered (0.22 μm) prior to anion-exchange FPLC. The sonicate was applied to an anion-exchange column (Hiload XK 16/10 Q Sepharose, Pharmacia-LKB) cooled to 4° C., in multiple injections using a 50 ml superloop (Pharmacia-LKB). The sonicate was eluted using a linear gradient from 0-100% buffer B over 90 min at a flow rate of 2.0 ml min^−1. Absorbance was monitored at 280 nm and elutant collected at 4° C. in 6 ml fractions using a Frac 100 fraction collector (Pharmacia-LKB). Buffer A was TC buffer containing 50 mM NaCl and buffer B was TC buffer containing 500 mM NaCl. Fractions were analysed for proteolytic and amidolytic activity using azocasein (A-2765, Sigma Chemical Co. St Louis, Mo.), benzoyl-L-Arg-p-nitroanilide (Bz-L-Arg-pNA, Sigma) and benzyloxycarbonyl-L-Lys-p-nitroanilide (z-L-Lys-pNA, Calbiochem, Melbourne, Australia) as described previously (Bhogal et al., 1997) except that fractions were pre-incubated with 10 mM cysteine for 10 min at 25° C. before the addition of substrate. For the amidolytic assays absorbance was monitored at 410 nm as previously described (Bhogal et al., 1997) and the amidolytic activity expressed as U where U=μmol substrate converted min^−1 at 25° C. Anion-exchange fractions eluting between 160-246 mM NaCl containing the highest ratio of Arg-specific to Lys-specific activity were, washed and concentrated in TC buffer containing 150 mM NaCl using a centripep and centricon 10 concentrators (Amicon) and applied to a gel filtration column (Superose 12, HR 10/30, Pharmacia-LKB) using TC buffer containing 150 mM NaCl at a flow rate of 0.3 ml min^−1. Absorbance was monitored at 280 nm and fractions collected at 4° C. using a Frac 100 fraction collector. The Mr values of eluant peaks were determined using gel filtration molecular mass standards (Pharmacia-LKB). The peak eluting at 50 kDa containing only Arg-specific amidolytic activity was washed in TC buffer containing 50 mM NaCl using a centricon-10 concentrator (Amicon) and applied to a Mono Q (HR 5/5) anion-exchange column using a 5 ml loop and eluted using a linear gradient of 0-100% buffer B at a flow rate 1.0 ml min^−. Buffer A was TC buffer containing 150 mM NaCl, buffer B was TC buffer containing 500 mM NaCl. Absorbance was monitored at 280 nm and fractions collected at 4° C. using a Frac 100 fraction collector.

| Molecule | Maximum lesion size [1] | effect on activity of the Arg-specific 50 kDa enzyme [3] | other results |
| --- | --- | --- | --- |
| Diphtheria Toxoid [DT, reference compound] | 33.59 mm^2 | – | protection against P. gingivalis challenge (lesion size), in words [1]: does not provide protection |
| ABM3 (K44)-OT: ABM3 (R44) peptide (SEQ ID NO: 98) conjugated to diphtheria toxoid (VTLKWDAPNGTPNPNPNPNPNPNPGTTTLSESF-NH2; not fully specified (N-terminus); also: conjugated to diphtheria toxoid; listed as Porphyromonas gingivalis) | 12.27 mm^2 | – | – |
| PYQPVSNLTATTQGQKVTLKWDAPSTK [ABM1 (R45)] | – | – | molar excess of peptide in solution required to inhibit binding of the complex to the ABM peptide adsorbed onto the microtitre plate ([2]; TLCK-inactivated PrtR-PrtK complex 1 mg/ml, FIG. 10): 5-100 fold; binding of the PrtR-PrtK complex to the substance [2]: Specific binding |
| O=S(=O)(F)Cc1ccccc1 [phenylmethyl sulfonyl fluoride] | – | not inhibited | – |
| Control peptide-DT: Control peptide PrtR27 (1432-1463) (SEQ ID NO: 97) conjugated to diphtheria toxoid (ANEAKVVLAADNVWGDNTGYQFLLDADHNTFG; also: conjugated to diphtheria toxoid; listed as Porphyromonas gingivalis) [reference compound] | 36.61 mm^2 | – | protection against P. gingivalis challenge (lesion size), in words [1]: did not provide protection |
| O=C(O)CN(CCN(CC(=O)O)CC(=O)O)CC(=O)O [EDTA] | – | inhibited | – |
| FNGGISLANYTGHGSETAWGT (listed as Porphyromonas gingivalis) [PAS1 (R45)] | – | – | inhibition of binding of the TLCK-inactivated PrtR-PrtK complex to the adsorbed ABM peptide ([2]; FIG. 10): did not inhibit |
| casein [reference compound] | – | – | binding of the PrtR-PrtK complex to the substance [2]: lack of binding; inhibition of binding of the TLCK-inactivated PrtR-PrtK complex to the adsorbed ABM peptide ([2]; FIG. 10): did not inhibit |
| ABM4 (K44)-DT: ABM4 (K44) peptide (SEQ ID NO: 35) conjugated to diphtheria toxoid (WIERTVDLPAGTKYVAFRHY-NH2; not fully specified (N-terminus); also: conjugated to diphtheria toxoid; listed as Porphyromonas gingivalis) | 18.83 mm^2 | – | – |
| NCCc1ccc(S(=O)(=O)F)cc1 [4-(2-aminoethyl)-benzenesulfonyl fluoride] | – | not inhibited | – |
| N[C@@H](CS)C(=O)O [cysteine] | – | activated | – |
| ABM5 (R15)-DT: ABM5 (R15) peptide (SEQ ID NO: 50) conjugated to diphtheria toxoid (PAEWTTIDADGDGQGW-NH2; not fully specified (N-terminus); also: conjugated to diphtheria toxoid; listed as Porphyromonas gingivalis) | 14.79 mm^2 | – | – |
| PAS1 (R45)-DT: PAS1 (R45) peptide (SEQ ID NO: 1) conjugated to diphtheria toxoid (FNGGISLANYTGHGSETAWGT; also: conjugated to diphtheria toxoid; listed as Porphyromonas gingivalis) | 10.46 mm^2 | – | protection against P. gingivalis challenge (lesion size), in words [1]: Significantly reduced lesion size |
| CC(=O)N[C@@H](CC(C)C)C(=O)N[C@@H](CC(C)C)C(=O)N[C@H](C=O)CCCNC(=N)N [leupeptin] | – | inhibited | – |
